Patent US20230203056A1, “HETEROCYCLIC COMPOUNDS” (Hoffmann-La Roche Inc., priority 2020, published 2023)

Molecular target: T1, MAGL (Homo sapiens, UniProt Q99685)
T1 sequence (Q99685 1-303): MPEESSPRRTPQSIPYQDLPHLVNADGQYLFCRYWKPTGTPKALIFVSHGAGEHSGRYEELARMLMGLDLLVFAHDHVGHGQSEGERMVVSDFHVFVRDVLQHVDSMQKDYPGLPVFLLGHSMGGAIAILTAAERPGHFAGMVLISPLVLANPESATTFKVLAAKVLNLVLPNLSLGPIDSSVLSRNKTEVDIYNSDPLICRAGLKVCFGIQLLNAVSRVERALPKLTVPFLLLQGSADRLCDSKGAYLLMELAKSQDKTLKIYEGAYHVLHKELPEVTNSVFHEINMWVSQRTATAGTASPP
Experiment: 2-AG assay: MAGL inhibitory activity, hydrolysis of 2-arachidonoylglycerol to arachidonic acid followed by mass spectrometry
Format: biochemical
Conditions: 50 pM MAGL, 8 μM 2-arachidonoylglycerol, 15 min preincubation, 30 min incubation at RT
Method: Compounds were profiled for MAGL inhibitory activity by determining the enzymatic activity by following the hydrolysis of the natural substrate 2-arachidonoylglycerol resulting in arachidonic acid, which can be followed by mass spectrometry. This assay is hereinafter abbreviated “2-AG assay”.
The 2-AG assay was carried out in 384 well assay plates (PP, Greiner Cat #784201) in a total volume of 20 μL. Compound dilutions were made in 100% DMSO (VWR Chemicals 23500.297) in a polypropylene plate in 3-fold dilution steps to give a final concentration range in the assay from 12.5 μM to 0.8 pM. 0.25 μL compound dilutions (100% DMSO) were added to 9 μL MAGL in assay buffer (50 mM TRIS (GIBCO, 15567-027), 1 mM EDTA (Fluka, 03690-100 mL), 0.01% (v/v) Tween. After shaking, the plate was incubated for 15 min at RT. To start the reaction, 10 μL 2-arachidonoylglycerol in assay buffer was added. The final concentrations in the assay was 50 pM MAGL and 8 μM 2-arachidonoylglyerol. After shaking and 30 min incubation at RT, the reaction was quenched by the addition of 40 μL of acetonitrile containing 4 μM of d8-arachidonic acid. The amount of arachidonic acid was traced by an online SPE system (Agilent Rapidfire) coupled to a triple quadrupole mass spectrometer (Agilent 6460). A C18 SPE cartridge (G9205A) was used in an acetonitrile/water liquid setup. The mass spectrometer was operated in negative electrospray mode following the mass transitions 303.1→259.1 for arachidonic acid and 311.1→267.0 for d8-arachidonic acid. The activity of the compounds was calculated based on the ratio of intensities [arachidonic acid/d8-arachidonic acid].

Row | SMILES | IC50
1 | O=C(N1CC(OCc2ccc(C(F)(F)F)cc2F)C1)N1C[C@@H]2CCc3cn[nH]c3[C@@H]2C1 (racemic) [Example 1, [3-[[2-Fluoro-4-(trifluoromethyl)phenyl]methoxy]azetidin-1-yl]-[rac-(5aR,8aS)-4,5,5a,6,8,8a-hexahydro-1H-pyrrolo[3,4-g]indazol-7-yl]methanone] | 8 nM
2 | O=C(N1CC(OCc2ccc(C(F)(F)F)cc2F)C1)N1C[C@@H]2COc3cn[nH]c3[C@@H]2C1 (racemic) [Example 2, [3-[[2-Fluoro-4-(trifluoromethyl)phenyl]methoxy]azetidin-1-yl]-[rac-(1S,9R)-7-oxa-3,4,11-triazatricyclo[7.3.0.0^2,6]dodeca-2(6),4-dien-1l-yl]methanone] | 67 nM
3 | O=C(N1C[C@@H]2COc3cn[nH]c3[C@@H]2C1)N1CC2(CC(Cc3ccc(F)cc3F)C2)C1 (single isomer, unassigned) [Example 5, (−)- or (+)-[6-[(2,4-Difluorophenyl)methyl]-2-azaspiro[3.3]heptan-2-yl]-[(1S,9R)-7-oxa-3,4,11-triazatricyclo[7.3.0.0^2,6]dodeca-2(6),4-dien-1l-yl]methanone] | 488 nM
4 | O=C(N1C[C@H]2COc3cn[nH]c3[C@H]2C1)N1CC2(CC(Cc3ccc(F)cc3F)C2)C1 (single isomer, unassigned) [Example 6, (+)- or (−)-[6-[(2,4-Difluorophenyl)methyl]-2-azaspiro[3.3]heptan-2-yl]-[(1R,9S)-7-oxa-3,4,11-triazatricyclo[7.3.0.0^2,6]dodeca-2(6),4-dien-11-yl]methanone] | 9 nM
5 | O=C(N1CC(OCc2ccc(C(F)(F)F)cc2F)C1)N1C[C@@H]2CCc3nn[nH]c3[C@@H]2C1 (single isomer, unassigned) [Example 7, (−)- or (+)-[3-[[2-Fluoro-4-(trifluoromethyl)phenyl]methoxy]azetidin-1-yl]-[(5aR,8aS)-4,5,5a,6,8,8a-hexahydro-1H-pyrrolo[3,4-e]benzotriazol-7-yl]methanone] | 50 nM
6 | O=C(N1CC(OCc2ccc(C(F)(F)F)cc2F)C1)N1C[C@H]2CCc3nn[nH]c3[C@H]2C1 (single isomer, unassigned) [Example 8, (+)- or (−)-[3-[[2-Fluoro-4-(trifluoromethyl)phenyl]methoxy]azetidin-1-yl]-[(5aS,8aR)-4,5,5a,6,8,8a-hexahydro-1H-pyrrolo[3,4-e]benzotriazol-7-yl]methanone] | 523 nM
7 | O=C(N1CC(OCc2ccc(C(F)(F)F)cc2F)C1)N1C[C@@H]2OCc3nn[nH]c3[C@@H]2C1 (single isomer, unassigned) [Example 9, (−)- or (+)-[3-[[2-Fluoro-4-(trifluoromethyl)phenyl]methoxy]azetidin-1-yl]-[(1S,9R)-8-oxa-3,4,5,11-tetrazatricyclo[7.3.0.02,6]dodeca-2(6),4-dien-11-yl]methanone] | 2700 nM
8 | O=C(N1CC(OCc2ccc(C(F)(F)F)cc2F)C1)N1C[C@@H]2c3[nH]nnc3CO[C@@H]2C1 (single isomer, unassigned) [Example 10, (+)- or (−)-[3-[[2-Fluoro-4-(trifluoromethyl)phenyl]methoxy]azetidin-1-yl]-[(1R,9S)-8-oxa-3,4,5,11-tetrazatricyclo[7.3.0.02,6]dodeca-2(6),4-dien-1l-yl]methanone] | 1220 nM
9 | O=C(N1CC(c2ccc(C3(C(F)(F)F)CC3)cc2)C1)N1C[C@@H]2COc3cn[nH]c3[C@@H]2C1 [Example 3, (−)- or (+)-[(1S,9R)-7-Oxa-3,4,11-triazatricyclo[7.3.0.0^2,6]dodeca-2(6),4-dien-11-yl]-[3-[4-[1-(trifluoromethyl)cyclopropyl]phenyl]azetidin-1-yl]methanone] | 13 nM
10 | O=C(N1CC(c2ccc(C3(C(F)(F)F)CC3)cc2)C1)N1C[C@H]2COc3cn[nH]c3[C@H]2C1 [Example 4, (+)- or (−)-[(1R,9S)-7-Oxa-3,4,11-triazatricyclo[7.3.0.0^2,6]dodeca-2(6),4-dien-11-yl]-[3-[4-[1-(trifluoromethyl)cyclopropyl]phenyl]azetidin-1-yl]methanone] | 917 nM
